Laboratory results as given in patent US9233964B2, “Sulfamide piperazine derivatives as protein tyrosine kinase inhibitors and pharmaceutical use therof” (LEO PHARMA A/S, priority 2011, dated 2016).

Assays:
Assay type in all cases: biochemical
JAK2 = molecular target: T1, JAK2 (Homo sapiens, UniProt O60674); test: JAK kinase assay (HTRF, phosphorylation of synthetic peptide), JAK2; conditions: catalytic domain, ATP at Km (4 μM); read-out: JAK2 kinase inhibitory activity (EC50)
T1 construct: All four purified enzymes contain only the catalytic domain; His (N); purchased Carna Biosciences, Inc; host or cells: baculovirus expression system
How it was run: (§1)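 Catalytic-domain human JAK1 (GST-tagged, aa 850-1154) or His-tagged JAK2, baculovirus-expressed, phosphorylated 1 µM biotinylated TK peptide at Km ATP (JAK1 7 µM, 10 mM MgCl2, 50 nM SEB; JAK2 4 µM, 5 mM MgCl2) in pH 7.0 Hepes, 20-30 min RT. EDTA stop; overnight streptavidin-XL665/cryptate HTRF read.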

TYK2 = molecular target: T2, TYK2 (Homo sapiens, UniProt P29597); test: JAK kinase assay (HTRF, phosphorylation of synthetic peptide), TYK2; conditions: catalytic domain, ATP at Km (13 μM); read-out: TYK2 kinase inhibitory activity (EC50)
T2 construct: JAK1 (aa 850-1154) and TYK2 (aa 871-1187) are expressed with an N-terminally fused GST-tag; GST (N); purchased Carna Biosciences, Inc; host or cells: baculovirus expression system
T2 sequence (P29597 871-1187): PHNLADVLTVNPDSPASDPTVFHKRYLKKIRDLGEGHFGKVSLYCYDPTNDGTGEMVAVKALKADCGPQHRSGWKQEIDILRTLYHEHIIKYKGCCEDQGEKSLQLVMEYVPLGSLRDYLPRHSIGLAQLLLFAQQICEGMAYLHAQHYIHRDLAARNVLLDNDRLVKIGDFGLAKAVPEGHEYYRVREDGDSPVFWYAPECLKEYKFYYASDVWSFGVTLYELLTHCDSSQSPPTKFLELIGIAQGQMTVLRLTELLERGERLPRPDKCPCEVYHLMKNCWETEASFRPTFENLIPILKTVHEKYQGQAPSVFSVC
How it was run: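 1 µM biotinylated TK peptide at Km ATP in pH 7.0 Hepes, 20-30 min RT. EDTA stop; overnight streptavidin-XL665/cryptate HTRF read.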

JAK3 = molecular target: T3, JAK3 (Homo sapiens, UniProt P52333); test: JAK kinase assay (HTRF, phosphorylation of synthetic peptide), JAK3; conditions: catalytic domain, ATP at Km (2 μM); read-out: JAK3 kinase inhibitory activity (EC50)
T3 construct: All four purified enzymes contain only the catalytic domain; His (N); purchased Carna Biosciences, Inc; host or cells: baculovirus expression system

JAK1 = molecular target: T4, JAK1 (Homo sapiens, UniProt P23458); test: JAK kinase assay (HTRF, phosphorylation of synthetic peptide), JAK1; conditions: catalytic domain, ATP at Km (7 μM); read-out: JAK1 kinase inhibitory activity (EC50)
T4 construct: JAK1 (aa 850-1154) and TYK2 (aa 871-1187) are expressed with an N-terminally fused GST-tag; GST (N); purchased Carna Biosciences, Inc; host or cells: baculovirus expression system
How it was run: as §1

T1 sequence (O60674 849-1124 limits assumed): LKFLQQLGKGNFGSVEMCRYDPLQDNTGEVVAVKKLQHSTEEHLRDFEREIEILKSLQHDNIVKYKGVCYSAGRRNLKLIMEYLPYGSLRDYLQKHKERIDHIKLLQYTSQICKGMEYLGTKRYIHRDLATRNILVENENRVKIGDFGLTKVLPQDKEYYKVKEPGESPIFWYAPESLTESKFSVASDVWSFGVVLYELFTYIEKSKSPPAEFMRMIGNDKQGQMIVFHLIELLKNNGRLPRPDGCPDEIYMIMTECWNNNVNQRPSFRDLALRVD
T3 sequence (P52333 822-1111 limits assumed): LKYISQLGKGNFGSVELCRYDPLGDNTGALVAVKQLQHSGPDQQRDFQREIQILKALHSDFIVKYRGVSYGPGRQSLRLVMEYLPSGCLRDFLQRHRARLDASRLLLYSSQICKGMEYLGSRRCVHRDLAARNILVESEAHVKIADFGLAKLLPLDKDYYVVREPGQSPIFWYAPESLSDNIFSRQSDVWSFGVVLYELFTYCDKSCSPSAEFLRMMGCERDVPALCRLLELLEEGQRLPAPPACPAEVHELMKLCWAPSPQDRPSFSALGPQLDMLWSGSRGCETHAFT
T4 sequence (P23458 850-1154): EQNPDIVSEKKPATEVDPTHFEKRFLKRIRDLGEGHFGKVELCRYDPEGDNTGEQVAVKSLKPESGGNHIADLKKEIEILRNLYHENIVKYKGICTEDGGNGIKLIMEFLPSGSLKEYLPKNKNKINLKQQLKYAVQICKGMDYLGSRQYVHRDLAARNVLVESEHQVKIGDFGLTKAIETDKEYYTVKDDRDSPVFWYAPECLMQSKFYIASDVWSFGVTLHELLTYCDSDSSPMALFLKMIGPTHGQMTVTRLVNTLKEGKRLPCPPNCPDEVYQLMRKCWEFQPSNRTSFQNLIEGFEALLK

| Compound | EC50 (JAK2) [nM] | EC50 (TYK2) [nM] | EC50 (JAK3) [nM] | EC50 (JAK1) [nM] |
| --- | --- | --- | --- | --- |
| CN(CC1CCOCC1)S(=O)(=O)N1CCN(c2ncnc3[nH]ccc23)CC12CC2 [Example 89, N-methyl-5-(7H-pyrrolo[2,3-d]pyrimidin-4-yl)-N-(tetrahydropyran-4-ylmethyl)-5,8-diazaspiro[2.5]octane-8-sulfonamide] | < 100 | 100 to 500 | 100 to 500 | < 100 |
| CN(C(=O)C1CCS(=O)(=O)C1)S(=O)(=O)N1CCN(c2ncnc3[nH]ccc23)CC12CC2 (stereo not drawn) [Example 135, N-methyl-1,1-dioxo-N-[[5-(7H-pyrrolo[2,3-d]pyrimidin-4-yl)-5,8-diazaspiro[2.5]octan-8-yl]sulfonyl]thiolane-3-carboxamide] | < 100 | 100 to 500 | < 100 | < 100 |
| CCN(CC1CCC(F)(F)CC1)S(=O)(=O)N1CCN(c2ncnc3[nH]ccc23)CC12CC2 [Example 149, N-[(4,4-difluorocyclohexyl)methyl]-N-ethyl-5-(7H-pyrrolo[2,3-d]pyrimidin-4-yl)-5,8-diazaspiro[2.5]octane-8-sulfonamide] | < 100 | > 500 | < 100 | < 100 |
| CN(CCC1CC1)S(=O)(=O)N1CCN(c2ncnc3[nH]ccc23)CC12CC2 [Example 82, N-(2-cyclopropylethyl)-N-methyl-5-(7H-pyrrolo[2,3-d]pyrimidin-4-yl)-5,8-diazaspiro[2.5]octane-8-sulfonamide] | < 100 | < 100 | < 100 | < 100 |
| N#CCCN(CC1CCCO1)S(=O)(=O)N1CCN(c2ncnc3[nH]ccc23)CC12CC2 (stereo not drawn) [Example 142, N-(2-cyanoethyl)-5-(7H-pyrrolo[2,3-d]pyrimidin-4-yl)-N-(tetrahydrofuran-2-ylmethyl)-5,8-diazaspiro[2.5]octane-8-sulfonamide] | < 100 | 100 to 500 | < 100 | < 100 |
| CC(C)N(CCO)S(=O)(=O)N1CCN(c2ncnc3[nH]ccc23)CC12CC2 [Example 97, N-(2-hydroxyethyl)-N-isopropyl-5-(7H-pyrrolo[2,3-d]pyrimidin-4-yl)-5,8-diazaspiro[2.5]octane-8-sulfonamide] | < 100 | > 500 | 100 to 500 | < 100 |
| NS(=O)(=O)N1CCN(c2ncnc3[nH]ccc23)CC12CC2 [Int 1] | < 100 | 100 to 500 | < 100 | < 100 |
| CN(CC(=O)c1ccccc1)S(=O)(=O)N1CCN(c2ncnc3[nH]ccc23)CC12CC2 [Example 12, 7-(7H-Pyrrolo[2,3-d]pyrimidin-4-yl)-4,7-diaza-spiro[2.5]octane-4-sulfonic acid methyl-(2-oxo-2-phenyl-ethyl)-amide] | < 100 | > 500 | 100 to 500 | < 100 |
| CN(C1CC1)S(=O)(=O)N1CCN(c2ncnc3[nH]ccc23)CC12CC2 [Example 141, N-cyclopropyl-N-methyl-5-(7H-pyrrolo[2,3-d]pyrimidin-4-yl)-5,8-diazaspiro[2.5]octane-8-sulfonamide] | < 100 | 100 to 500 | 100 to 500 | < 100 |
| O=S(=O)(N(CCc1ccccc1)CCc1cccc(F)c1)N1CCN(c2ncnc3[nH]ccc23)CC12CC2 [Example 48, 7-(7H-Pyrrolo[2,3-d]pyrimidin-4-yl)-4,7-diaza-spiro[2.5]octane-4-sulfonic acid [2-(3-fluoro-phenyl)-ethyl]-phenethyl-amide] | 100 to 500 | > 500 | > 500 | 100 to 500 |
| O=S(=O)(NOCc1ccccc1)N1CCN(c2ncnc3[nH]ccc23)CC12CC2 [Int 46] | < 100 | 100 to 500 | 100 to 500 | < 100 |
| CN(C(=O)C1CCCC1)S(=O)(=O)N1CCN(c2ncnc3[nH]ccc23)CC12CC2 [Example 132, N-methyl-N-[[5-(7H-pyrrolo[2,3-d]pyrimidin-4-yl)-5,8-diazaspiro[2.5]octan-8-yl]sulfonyl]cyclopentanecarboxamide] | < 100 | 100 to 500 | 100 to 500 | < 100 |
| CN(CCC1CCS(=O)(=O)C1)S(=O)(=O)N1CCN(c2ncnc3[nH]ccc23)CC12CC2 (stereo not drawn) [Example 75, N-[2-(1,1-dioxothiolan-3-yl)ethyl]-N-methyl-5-(7H-pyrrolo[2,3-d]pyrimidin-4-yl)-5,8-diazaspiro[2.5]octane-8-sulfonamide] | < 100 | 100 to 500 | < 100 | < 100 |
| CN(C1CN(S(C)(=O)=O)C1)S(=O)(=O)N1CCN(c2ncnc3[nH]ccc23)CC12CC2 [Example 180, N-methyl-N-(1-methylsulfonylazetidin-3-yl)-5-(7H-pyrrolo[2,3-d]pyrimidin-4-yl)-5,8-diazaspiro[2.5]octane-8-sulfonamide] | < 100 | < 100 | < 100 | < 100 |

More lines, now with the values ahead:

| EC50 (JAK2) [nM] | EC50 (TYK2) [nM] | EC50 (JAK3) [nM] | EC50 (JAK1) [nM] | Compound |
| --- | --- | --- | --- | --- |
| < 100 | 100 to 500 | < 100 | < 100 | CC(CN(C)S(=O)(=O)N1CCN(c2ncnc3[nH]ccc23)CC12CC2)c1ccccc1 (stereo not drawn) [Example 63, N-methyl-N-(2-phenylpropyl)-5-(7H-pyrrolo[2,3-d]pyrimidin-4-yl)-5,8-diazaspiro[2.5]octane-8-sulfonamide] |
| < 100 | < 100 | 100 to 500 | < 100 | CN(Cc1ccccc1C#N)S(=O)(=O)N1CCN(c2ncnc3[nH]ccc23)CC12CC2 [Example 14, 7-(7H-Pyrrolo[2,3-d]pyrimidin-4-yl)-4,7-diaza-spiro[2.5]octane-4-sulfonic acid (2-cyano-benzyl)-methyl-amide] |
| < 100 | 100 to 500 | < 100 | < 100 | O=S(=O)(N(CCOc1ccccc1)C1COC1)N1CCN(c2ncnc3[nH]ccc23)CC12CC2 [Example 115, N-(oxetan-3-yl)-N-(2-phenoxyethyl)-5-(7H-pyrrolo[2,3-d]pyrimidin-4-yl)-5,8-diazaspiro[2.5]octane-8-sulfonamide] |
| < 100 | 100 to 500 | < 100 | < 100 | COC(=O)CN(C)S(=O)(=O)N1CCN(c2ncnc3[nH]ccc23)CC12CC2 [Example 34, {Methyl-[7-(7H-pyrrolo[2,3-d]pyrimidin-4-yl)-4,7-diaza-spiro[2.5]octane-4-sulfonyl]-amino}-acetic acid methyl ester] |
| < 100 | > 500 | < 100 | < 100 | O=S1(=O)CCC(CNS(=O)(=O)N2CCN(c3ncnc4[nH]ccc34)CC23CC3)CC1 [Int 38] |
| < 100 | 100 to 500 | < 100 | < 100 | COCCS(=O)(=O)N1CCC(CN(C)S(=O)(=O)N2CCN(c3ncnc4[nH]ccc34)CC23CC3)C1 (stereo not drawn) [Example 120, N-[[1-(2-methoxyethylsulfonyl)pyrrolidin-3-yl]methyl]-N-methyl-5-(7H-pyrrolo[2,3-d]pyrimidin-4-yl)-5,8-diazaspiro[2.5]octane-8-sulfonamide] |
| 100 to 500 | > 500 | > 500 | 100 to 500 | O=S(=O)(N(CCc1ccccc1)CCc1ccc(F)cc1)N1CCN(c2ncnc3[nH]ccc23)CC12CC2 [Example 47, 7-(7H-Pyrrolo[2,3-d]pyrimidin-4-yl)-4,7-diaza-spiro[2.5]octane-4-sulfonic acid [2-(4-fluoro-phenyl)-ethyl]-phenethyl-amide] |
